Data as given in publication PMC7392887, “Structural signatures in EPR3 define a unique class of plant carbohydrate receptors” (Nature Communications, 2020).

T1: EPR3 (Lotus japonicus, UniProt D3KU53)
T1 construct: gene LYS3; ectodomain (M1, M2, LysM3, stem), residues 33-232; N-terminal gp67 secretion signal, C-terminal 6xHis tag; secreted from Sf9 insect cells (baculovirus); glycosylated or PNGase F-treated; monomer
T1 sequence (D3KU53 33-232): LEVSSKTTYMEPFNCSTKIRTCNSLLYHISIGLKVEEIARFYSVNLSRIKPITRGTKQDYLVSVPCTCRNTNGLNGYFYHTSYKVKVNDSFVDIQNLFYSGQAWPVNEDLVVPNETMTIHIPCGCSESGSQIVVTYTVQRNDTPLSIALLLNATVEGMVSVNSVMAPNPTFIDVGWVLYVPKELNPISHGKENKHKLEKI

T2: Lotus japonicus exopolysaccharide receptor 3 (EPR3) ectodomain (Lotus japonicus ecotype Gifu, N-linked oligosaccharides (glycosylated))
T2 construct: EPR3 (exopolysaccharide receptor 3), Lotus japonicus ecotype Gifu, ectodomain, residues 33-232; Codon-optimised for insect cells, vector pOET2; also called Lotus EPR3; glycosylated EPR3; source: Sf9 (baculovirus), secreted into the medium, purified (HisTrap excel, HisTrap HP, Superdex 75)
T2 chain: T1 sequence (D3KU53 33-232)

B1: Nb186 (VHH)
VHH: QVQLVESGGGLVQPGGSLRLSCAASGSIFSIDYMGWYRQAPGKERELVAIKTSGGTTHYADSVKGRFTISRDNAKNTVYLQMNSLKPDDTAVYYCNARVYFGDRDYWGQGTQVTVSS
notes: llama (Lama glama) nanobody selected by phage display against EPR3; Cloned into pET22b(+) for bacterial expression; also called nanobody Nb186; source: E. coli LOBSTR, purified (Ni Sepharose 6 FF, Superdex 75)

Experiments:
EPR3 = biological target: T1, EPR3; assay: microscale thermophoresis; type: binding; conditions: labelled EPR3 (Blue NHS, 100 nM); 50 mM K2PO4 pH 7.8, 500 mM NaCl, 0.05% Tween-20; 25 °C; n = 3
[1] = biological target: T2, Lotus japonicus exopolysaccharide …; assay: SEC; analytic Superdex 75 Increase 3.2/300 column; mobility shift of the complex; conditions: both partners purified

Molecule	Kd (EPR3)	binding result [1]
O=C(O)[C@H]1O[C@@H](O[C@H]2[C@H](O)[C@@H](O)[C@@H](O[C@H]3[C@H](O)[C@@H](O)[C@H](OC[C@H]4O[C@@H](OC[C@H]5O[C@@H](O[C@H]6[C@H](O)[C@@H](O)[C@H](O[C@H]7[C@H](O)[C@@H](O)[C@H](O[C@H]8[C@@H](O)[C@@H](CO)OC(O)[C@@H]8O)O[C@@H]7CO)O[C@@H]6CO)[C@H](O)[C@@H](O)[C@@H]5O)[C@H](O)[C@@H](O)[C@@H]4O)O[C@@H]3CO)O[C@@H]2C(=O)O)[C@H](O)[C@@H]1O (some centres unmarked) [deOAc-EPS]	31.3 ± 11.7 µM	
B1		binds
